What was measured:
DMS 114 = experiment: cells; details: Homo sapiens; for CC50: DMS-114, read-out: LC-50
DMS 273 = experiment: NCI in vitro screen, SRB percent growth, Small Cell Lung Cancer
[1] = DMS-114, read-out: Percent Growth

Compound `COc1ccc2[nH]c3c(C)c4c(c(C)c3c2c1)CN(C)C=C4` [Formula VII] has a CC50 (DMS 114) of over 100 µM, an activity at 0.1 µM (DMS 114; [1]) of 64% and an activity at 1 µM (DMS 114; [1]) of 11%. For the same compound, the activity at 10 µM (DMS 114; [1]) was -37%, the activity at 100 µM (DMS 114; [1]) was -46% and the “Percent Growth” value (DMS 273; Log10 Concentration -4.0, 100 µM) was -72%. The “Percent Growth” value (DMS 273; Log10 Concentration -5.0) was 10%, the “Percent Growth” value (DMS 273; Log10 Concentration -6.0, 1 µM) was 48% and the “Percent Growth” value (DMS 273; Log10 Concentration -7.0, 0.1 µM) was 77%. For the same compound, the “Percent Growth” value (DMS 273; Log10 Concentration -8.0) was 98% and the CC50 (DMS 273; read-out: LC-50, PG=-50) was 54.3 µM.
Work on `Cc1ccc2[nH]c3c(C)c4c(c(C)c3c2c1)CN(C)C=C4` [Formula XI] yielded a CC50 (DMS 114) of 6.03 µM, an activity at 0.01 µM (DMS 114; [1]) of 80% and an activity at 0.1 µM (DMS 114; [1]) of 73%. The activity at 10 µM (DMS 114; [1]) was -74% and the activity at 100 µM (DMS 114; [1]) was -68%.

From US5441941A, “1,2-dihydroellipticines with activity against CNS specific cancer” (The United States of America as represented by the …, priority 1993, dated 1995)
